Reference: patent US8901036B2, “Combinations of phenylsulfonylurea herbicides and safeners” (Bayer Cropscience AG, priority 1994, dated 2014)

Legend:
[1] = test system: Barley; assay: Phytotoxicity of herbicide/safener combinations in cereals, glasshouse post-emergence; type: in vivo; settings: no safener, 4 weeks after treatment
Description: (§1) Various crop plants are grown in plastic pots with a diameter of 9 cm in a glasshouse to the stated stage and then treated with the particular herbicide or with a mixture of the herbicide and the safener by the post-emergence method. This entails the herbicide of the formula (A) and the compounds of the formula (B) being applied in the form of aqueous suspensions or emulsions with a water application rate which converts to 300 l/ha. 4 weeks after the treatment, the plants are assessed visually for every type of damage by the applied herbicides, taking particular account of the extent of persistent growth inhibition. The evaluation takes place in percentages (scale from 0 to 100%) compared with untreated controls.

[2] = test system: Wheat; assay: as above; type: in vivo; settings: no safener, 4 weeks after treatment
Description: as §1

[3] = test system: ALMY; assay: Herbicidal activity on grasses, post-emergence; type: in vivo, Alopecurus myosuroides; settings: no safener, 4-leaf stage
Description: as §1

[4] = test system: APSP; assay: Herbicidal activity on grasses, post-emergence; type: in vivo, Apera spica-venti; settings: no safener, 4-leaf stage
Description: as §1

[5] = test system: AVFA; assay: Herbicidal activity on grasses, post-emergence; type: in vivo, Avena fatua; settings: no safener, 4-leaf stage
Description: as §1

[6] = test system: POAN; assay: Herbicidal activity on grasses, post-emergence; type: in vivo, Poa annua; settings: no safener, 4-leaf stage
Description: as §1

[7] = test system: Corn; assay: Effect and selectivity in corn: phytotoxicity; type: in vivo; settings: corn 4 leaves
Description: as §1

[8] = test system: SVFA; assay: Effect and selectivity in corn: herbicidal effect; type: in vivo
Description: as §1

[9] = test system: ECCG; assay: Effect and selectivity in corn: herbicidal effect; type: in vivo, Echinochloa crus-galli; settings: start of tillering (4 to 5 leaves)
Description: as §1

[10] = test system: SOHA; assay: Effect and selectivity in corn: herbicidal effect; type: in vivo, Sorghum halepense; settings: 3 leaves
Description: as §1

## COC(=O)c1ccc(NC(C)=O)cc1S(=O)(=O)NC(=O)Nc1nc(OC)cc(OC)n1 [A1, N-(4,6-Dimethoxypyrimidin-2-ylaminocarbonyl)-2-methoxycarbonyl-5-acetylaminobenzenesulfonamide]
[1]; dose A 10 g AS/ha
  Phytotoxicity Barley: 50%
[1]; dose A 20 g AS/ha
  Phytotoxicity Barley: 80%
[2]; dose A 10 g AS/ha
  Phytotoxicity Wheat: 25%
[2]; dose A 20 g AS/ha
  Phytotoxicity Wheat: 50%

## COC(=O)c1ccc(NC(C)=O)cc1S(=O)(=O)NC(=O)Nc1nc(OC)cc(OC)n1.[Na] [A3, N-(4,6-Dimethoxypyrimidin-2-ylaminocarbonyl)-2-methoxycarbonyl-5-acetylaminobenzenesulfonamide sodium salt]
[1]; dose A 10 g AS/ha
  Phytotoxicity Barley: 60%
[1]; dose A 20 g AS/ha
  Phytotoxicity Barley: 95%
[2]; dose A 10 g AS/ha
  Phytotoxicity Wheat: 30%
[2]; dose A 20 g AS/ha
  Phytotoxicity Wheat: 65%

## COC(=O)c1ccc(N(C)C(=O)C(C)C)cc1S(=O)(=O)NC(=O)Nc1nc(OC)cc(OC)n1.[Na] [A5, N-(4,6-Dimethoxypyrimidin-2-ylaminocarbonyl)-2-methoxycarbonyl-5-(N-isopropionylmethylamino)benzenesulfonamide sodium salt]
[1]; dose A 20 g AS/ha
  Phytotoxicity Barley: 25%
[1]; dose A 40 g AS/ha
  Phytotoxicity Barley: 50%
[2]; dose A 20 g AS/ha
  Phytotoxicity Wheat: 5%
[2]; dose A 40 g AS/ha
  Phytotoxicity Wheat: 20%
[3]; dose A 10 g AS/ha
  % effect on ALMY: 95%
[3]; dose A 20 g AS/ha
  % effect on ALMY: 99%
[3]; dose A 40 g AS/ha
  % effect on ALMY: 100%
[4]; dose A 10 g AS/ha
  % effect on APSP: 98%
[4]; dose A 20 g AS/ha
  % effect on APSP: 100%
[4]; dose A 40 g AS/ha
  % effect on APSP: 100%
[5]; dose A 10 g AS/ha
  % effect on AVFA: 85%
[5]; dose A 20 g AS/ha
  % effect on AVFA: 99%
[5]; dose A 40 g AS/ha
  % effect on AVFA: 100%
[6]; dose A 10 g AS/ha
  % effect on POAN: 98%
[6]; dose A 20 g AS/ha
  % effect on POAN: 100%
[6]; dose A 40 g AS/ha
  % effect on POAN: 100%

## COC(=O)c1ccc(CN(C)S(C)(=O)=O)cc1S(=O)(=O)NC(=O)Nc1nc(OC)cc(OC)n1 [A12]
[1]; dose A 6 g AS/ha
  Phytotoxicity Barley: 8%
[1]; dose A 12 g AS/ha
  Phytotoxicity Barley: 15%
[1]; dose A 25 g AS/ha
  Phytotoxicity Barley: 25%
[2]; dose A 6 g AS/ha
  Phytotoxicity Wheat: 5%
[2]; dose A 12 g AS/ha
  Phytotoxicity Wheat: 10%
[2]; dose A 25 g AS/ha
  Phytotoxicity Wheat: 10%
[3]; dose A 6 g AS/ha
  % effect on ALMY: 95%
[3]; dose A 12 g AS/ha
  % effect on ALMY: 98%
[3]; dose A 25 g AS/ha
  % effect on ALMY: 99%
[4]; dose A 6 g AS/ha
  % effect on APSP: 85%
[4]; dose A 12 g AS/ha
  % effect on APSP: 95%
[4]; dose A 25 g AS/ha
  % effect on APSP: 98%
[5]; dose A 6 g AS/ha
  % effect on AVFA: 75%
[5]; dose A 12 g AS/ha
  % effect on AVFA: 85%
[5]; dose A 25 g AS/ha
  % effect on AVFA: 90%
[6]; dose A 6 g AS/ha
  % effect on POAN: 85%
[6]; dose A 12 g AS/ha
  % effect on POAN: 92%
[6]; dose A 25 g AS/ha
  % effect on POAN: 99%

## COC(=O)NCc1ccc(C(=O)OC)c(S(=O)(=O)NC(=O)Nc2nc(OC)cc(OC)n2)c1.[Na] [A6, N-(4,6-Dimethoxypyrimidin-2-ylaminocarbonyl)-2-methoxycarbonyl-5-(N-methoxycarbonylaminomethyl)benzenesulfonamide sodium salt]
[1]; dose A 20 g AS/ha
  Phytotoxicity Barley: 30%
[1]; dose A 40 g AS/ha
  Phytotoxicity Barley: 85%
[2]; dose A 20 g AS/ha
  Phytotoxicity Wheat: 15%
[2]; dose A 40 g AS/ha
  Phytotoxicity Wheat: 40%
[3]; dose A 10 g AS/ha
  % effect on ALMY: 99%
[3]; dose A 20 g AS/ha
  % effect on ALMY: 100%
[3]; dose A 40 g AS/ha
  % effect on ALMY: 100%
[4]; dose A 10 g AS/ha
  % effect on APSP: 99%
[4]; dose A 20 g AS/ha
  % effect on APSP: 100%
[4]; dose A 40 g AS/ha
  % effect on APSP: 100%
[5]; dose A 10 g AS/ha
  % effect on AVFA: 80%
[5]; dose A 20 g AS/ha
  % effect on AVFA: 90%
[5]; dose A 40 g AS/ha
  % effect on AVFA: 100%
[6]; dose A 10 g AS/ha
  % effect on POAN: 99%
[6]; dose A 20 g AS/ha
  % effect on POAN: 100%
[6]; dose A 40 g AS/ha
  % effect on POAN: 100%

## COC(=O)NCc1ccc(C(=O)OC)c(S(=O)(=O)NC(=O)Nc2nc(OC)cc(OC)n2)c1.[Na] [A11]
[1]; dose A 6 g AS/ha
  Phytotoxicity Barley: 10%
[1]; dose A 12 g AS/ha
  Phytotoxicity Barley: 25%
[1]; dose A 25 g AS/ha
  Phytotoxicity Barley: 45%
[2]; dose A 6 g AS/ha
  Phytotoxicity Wheat: 5%
[2]; dose A 12 g AS/ha
  Phytotoxicity Wheat: 20%
[2]; dose A 25 g AS/ha
  Phytotoxicity Wheat: 45%
[3]; dose A 6 g AS/ha
  % effect on ALMY: 95%
[3]; dose A 12 g AS/ha
  % effect on ALMY: 98%
[3]; dose A 25 g AS/ha
  % effect on ALMY: 100%
[4]; dose A 6 g AS/ha
  % effect on APSP: 85%
[4]; dose A 12 g AS/ha
  % effect on APSP: 95%
[4]; dose A 25 g AS/ha
  % effect on APSP: 100%
[5]; dose A 6 g AS/ha
  % effect on AVFA: 70%
[5]; dose A 12 g AS/ha
  % effect on AVFA: 90%
[5]; dose A 25 g AS/ha
  % effect on AVFA: 95%
[6]; dose A 6 g AS/ha
  % effect on POAN: 90%
[6]; dose A 12 g AS/ha
  % effect on POAN: 100%
[6]; dose A 25 g AS/ha
  % effect on POAN: 100%

## COC(=O)Nc1ccc(C(=O)N(C)C)c(S(=O)(=O)NC(=O)Nc2nc(OC)cc(OC)n2)c1.[Na] [A7, N-(4,6-Dimethoxypyrimidin-2-ylaminocarbonyl)-2-(N,N-dimethylaminocarbonyl)-5-(N-methoxycarbonylamino)benzenesulfonamide sodium salt]
[7]; dose 25 g AS/ha
  Phytotoxicity or herbicidal effect in % Corn: 25%
[7]; dose 50 g AS/ha
  Phytotoxicity or herbicidal effect in % Corn: 40%
[7]; dose 100 g AS/ha
  Phytotoxicity or herbicidal effect in % Corn: 60%
[8]; dose 25 g AS/ha
  Phytotoxicity or herbicidal effect in % SVFA: 100%
[8]; dose 50 g AS/ha
  Phytotoxicity or herbicidal effect in % SVFA: 100%
[8]; dose 100 g AS/ha
  Phytotoxicity or herbicidal effect in % SVFA: 100%
[9]; dose 25 g AS/ha
  Phytotoxicity or herbicidal effect in % ECCG: 60%
[9]; dose 50 g AS/ha
  Phytotoxicity or herbicidal effect in % ECCG: 80%
[9]; dose 100 g AS/ha
  Phytotoxicity or herbicidal effect in % ECCG: 90%
[10]; dose 25 g AS/ha
  Phytotoxicity or herbicidal effect in % SOHA: 90%
[10]; dose 50 g AS/ha
  Phytotoxicity or herbicidal effect in % SOHA: 90%
[10]; dose 100 g AS/ha
  Phytotoxicity or herbicidal effect in % SOHA: 95%
